Assay results from ChEMBL document CHEMBL3885861, “Open TG-GATES”.

Organism: Rattus norvegicus
Test: Open TG-GATES - Regimen: Single
Assay type: toxicity, organism-based, Sprague-Dawley
Parameters: regimen Single, gender Male, age 6 weeks
Details: in vivo, po, 100 mg/kg, route gavage, dose level Low; for APTT / Bas / Eos / Fbg / Hb / Ht / Lym / MCH / MCHC / MCV / Mono / Neu / PT / Plat / RBC / Ret / WBC: tissue Blood; for KIDNEY_L / KIDNEY_R / KIDNEY_TOTAL: tissue Kidney; for LIVER: tissue Liver; for A/G / ALP / ALT / AST / BUN / CRE / Ca / Cl / DBIL / GLC / IP / K / LDH / Na / PL / RALB / TBIL / TC / TG / TP / gamma-GTP: tissue Plasma

SMILES: CC(C)(S)[C@@H](N)C(=O)O [PENICILLAMINE]
- TERMINAL_BW (3 h): 201.7 g
- APTT (3 h): 15.4 s
- Bas (3 h): 0%
- Eos (3 h): 1%
- Fbg (3 h): 283 mg/dL
- Hb (3 h): 13.5 g/dL
- Ht (3 h): 41.8%
- Lym (3 h): 79.2%
- MCH (3 h): 20.5 pg
- MCHC (3 h): 32.4%
- MCV (3 h): 63.4 fL
- Mono (3 h): 2.8%
- Neu (3 h): 16.4%
- PT (3 h): 15 s
- Plat (3 h): 118.1 x10_4/uL
- RBC (3 h): 659.6 x10_4/ul
- Ret (3 h): 9.3%
- WBC (3 h): 78.7 x10_2/uL
- KIDNEY_L (3 h): 0.9 g
- KIDNEY_R (3 h): 0.9 g
- KIDNEY_TOTAL (3 h): 1.8 g
- LIVER (3 h): 8.7 g
- A/G (3 h): 1
- ALP (3 h): 1342 IU/L
- ALT (3 h): 42.6 IU/L
- AST (3 h): 74.4 IU/L
- BUN (3 h): 9.6 mg/dL
- CRE (3 h): 0.2 mg/dL
- Ca (3 h): 10.8 mg/dL
- Cl (3 h): 106.6 meq/L
- DBIL (3 h): 0.012 mg/dL
- GLC (3 h): 186.8 mg/dL
- IP (3 h): 8.2 mg/dL
- K (3 h): 4.3 meq/L
- LDH (3 h): 61.2 IU/L
- Na (3 h): 142.2 meq/L
- PL (3 h): 139 mg/dL
- RALB (3 h): 2.6 g/dL
- TBIL (3 h): 0.036 mg/dL
- TC (3 h): 74.4 mg/dL
- TG (3 h): 63.6 mg/dL
- TP (3 h): 5.3 g/dL
- gamma-GTP (3 h): 1 IU/L
- TERMINAL_BW (6 h): 200.9 g
- APTT (6 h): 18.6 s
- Bas (6 h): 0%
- Eos (6 h): 1%
- Fbg (6 h): 310 mg/dL
- Hb (6 h): 13.4 g/dL
- Ht (6 h): 41.5%
- Lym (6 h): 74.8%
- MCH (6 h): 20.6 pg
- MCHC (6 h): 32.2%
- MCV (6 h): 63.9 fL
- Mono (6 h): 3%
- Neu (6 h): 20.6%
- PT (6 h): 14.7 s
- Plat (6 h): 117.7 x10_4/uL
- RBC (6 h): 651 x10_4/ul
- Ret (6 h): 9.1%
- WBC (6 h): 91.5 x10_2/uL
- KIDNEY_L (6 h): 0.9 g
- KIDNEY_R (6 h): 0.9 g
- KIDNEY_TOTAL (6 h): 1.8 g
- LIVER (6 h): 8.2 g
- A/G (6 h): 0.9
- ALP (6 h): 1252 IU/L
- ALT (6 h): 38 IU/L
- AST (6 h): 76 IU/L
- BUN (6 h): 7.2 mg/dL
- CRE (6 h): 0.2 mg/dL
- Ca (6 h): 10.7 mg/dL
- Cl (6 h): 106.6 meq/L
- DBIL (6 h): 0.01 mg/dL
- GLC (6 h): 175.4 mg/dL
- IP (6 h): 8.7 mg/dL
- K (6 h): 4 meq/L
- LDH (6 h): 63.8 IU/L
- Na (6 h): 143 meq/L
- PL (6 h): 138.2 mg/dL
- RALB (6 h): 2.5 g/dL
- TBIL (6 h): 0.038 mg/dL
- TC (6 h): 78.8 mg/dL
- TG (6 h): 44.6 mg/dL
- TP (6 h): 5.2 g/dL
- gamma-GTP (6 h): 1.2 IU/L
- TERMINAL_BW (9 h): 200 g
- APTT (9 h): 15.2 s
- Bas (9 h): 0%
- Eos (9 h): 0.8%
- Fbg (9 h): 315.8 mg/dL
- Hb (9 h): 13.3 g/dL
- Ht (9 h): 41.2%
- Lym (9 h): 78%
- MCH (9 h): 20.5 pg
- MCHC (9 h): 32.3%
- MCV (9 h): 63.6 fL
- Mono (9 h): 2.2%
- Neu (9 h): 18.4%
- PT (9 h): 14.3 s
- Plat (9 h): 124 x10_4/uL
- RBC (9 h): 647.4 x10_4/ul
- Ret (9 h): 9%
- WBC (9 h): 74.3 x10_2/uL
- KIDNEY_L (9 h): 0.9 g
- KIDNEY_R (9 h): 0.9 g
- KIDNEY_TOTAL (9 h): 1.8 g
- LIVER (9 h): 7.9 g
- A/G (9 h): 0.9
- ALP (9 h): 1373.8 IU/L
- ALT (9 h): 40 IU/L
- AST (9 h): 68.6 IU/L
- BUN (9 h): 9.6 mg/dL
- CRE (9 h): 0.2 mg/dL
- Ca (9 h): 10.7 mg/dL
- Cl (9 h): 106.4 meq/L
- DBIL (9 h): 0.008 mg/dL
- GLC (9 h): 166.2 mg/dL
- IP (9 h): 10 mg/dL
- K (9 h): 4 meq/L
- LDH (9 h): 54.4 IU/L
- Na (9 h): 143.2 meq/L
- PL (9 h): 137 mg/dL
- RALB (9 h): 2.6 g/dL
- TBIL (9 h): 0.034 mg/dL
- TC (9 h): 79.6 mg/dL
- TG (9 h): 45 mg/dL
- TP (9 h): 5.4 g/dL
- gamma-GTP (9 h): 1.2 IU/L
- TERMINAL_BW (24 h): 219.1 g
- APTT (24 h): 16.6 s
- Bas (24 h): 0%
- Eos (24 h): 0.8%
- Fbg (24 h): 272.4 mg/dL
- Hb (24 h): 13 g/dL
- Ht (24 h): 40%
- Lym (24 h): 78.6%
- MCH (24 h): 20.8 pg
- MCHC (24 h): 32.4%
- MCV (24 h): 64.2 fL
- Mono (24 h): 2.8%
- Neu (24 h): 16.8%
- PT (24 h): 14.2 s
- Plat (24 h): 125.3 x10_4/uL
- RBC (24 h): 623.4 x10_4/ul
- Ret (24 h): 8%
- WBC (24 h): 90.1 x10_2/uL
- KIDNEY_L (24 h): 0.9 g
- KIDNEY_R (24 h): 0.9 g
- KIDNEY_TOTAL (24 h): 1.9 g
- LIVER (24 h): 10.4 g
- A/G (24 h): 0.9
- ALP (24 h): 1649.2 IU/L
- ALT (24 h): 45 IU/L
- AST (24 h): 70.4 IU/L
- BUN (24 h): 13.4 mg/dL
- CRE (24 h): 0.2 mg/dL
- Ca (24 h): 11 mg/dL
- Cl (24 h): 104.4 meq/L
- DBIL (24 h): 0.012 mg/dL
- GLC (24 h): 178.6 mg/dL
- IP (24 h): 7.9 mg/dL
- K (24 h): 4 meq/L
- LDH (24 h): 81.6 IU/L
- Na (24 h): 143.2 meq/L
- PL (24 h): 155.2 mg/dL
- RALB (24 h): 2.7 g/dL
- TBIL (24 h): 0.026 mg/dL
- TC (24 h): 81.6 mg/dL
- TG (24 h): 93.6 mg/dL
- TP (24 h): 5.5 g/dL
- gamma-GTP (24 h): 1 IU/L
